Structures can show the parent of a compound that is named as a salt.

T1 sequence (Q96P20 whole entry): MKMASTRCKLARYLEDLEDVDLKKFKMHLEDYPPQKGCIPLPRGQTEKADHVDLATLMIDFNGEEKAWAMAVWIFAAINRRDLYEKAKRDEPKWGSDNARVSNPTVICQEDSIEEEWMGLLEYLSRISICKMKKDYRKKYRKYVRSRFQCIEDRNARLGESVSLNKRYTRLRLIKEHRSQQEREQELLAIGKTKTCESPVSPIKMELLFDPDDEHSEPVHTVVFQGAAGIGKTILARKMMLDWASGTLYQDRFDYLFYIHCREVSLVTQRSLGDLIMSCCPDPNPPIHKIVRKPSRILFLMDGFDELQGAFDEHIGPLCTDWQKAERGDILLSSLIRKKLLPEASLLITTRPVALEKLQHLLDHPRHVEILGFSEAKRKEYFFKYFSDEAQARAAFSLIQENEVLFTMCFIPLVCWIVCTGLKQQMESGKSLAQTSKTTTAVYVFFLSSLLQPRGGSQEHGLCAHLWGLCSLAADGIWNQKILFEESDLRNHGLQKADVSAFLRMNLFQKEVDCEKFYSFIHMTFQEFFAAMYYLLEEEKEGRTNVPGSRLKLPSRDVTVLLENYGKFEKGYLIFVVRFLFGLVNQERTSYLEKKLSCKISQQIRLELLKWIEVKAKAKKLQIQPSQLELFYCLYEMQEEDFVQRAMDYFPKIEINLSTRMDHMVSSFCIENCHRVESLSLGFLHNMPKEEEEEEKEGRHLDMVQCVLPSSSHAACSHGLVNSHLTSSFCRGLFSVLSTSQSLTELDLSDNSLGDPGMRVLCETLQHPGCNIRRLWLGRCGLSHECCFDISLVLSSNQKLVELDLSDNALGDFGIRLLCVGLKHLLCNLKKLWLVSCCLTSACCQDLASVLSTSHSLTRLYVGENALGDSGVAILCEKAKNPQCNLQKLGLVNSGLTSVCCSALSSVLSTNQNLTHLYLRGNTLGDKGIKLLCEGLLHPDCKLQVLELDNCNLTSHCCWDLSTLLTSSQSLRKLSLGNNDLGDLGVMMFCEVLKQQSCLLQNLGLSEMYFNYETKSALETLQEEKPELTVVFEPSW

This assay concerns the target T1, NLRP3 inflammasome (Homo sapiens, UniProt Q96P20).
T1 construct: endogenous in cells; host or cells: THP-1 (human monocyte-derived), PMA-differentiated, Nigericin-stimulated
As to the kind of experiment: In vitro IL-1β production test (PMA-differentiated THP-1 cells, Nigericin stimulation, AlphaLISA). Conditions: inhibition of IL-1β production; THP-1 cells differentiated with 200 nM PMA; 0.015 mM Nigericin; 2 hours. It is filed as cell-based. As for the experimental part:
Human monocyte-derived THP-1 cells were cultured for one day in 10% bovine serum-containing RPMI-1640 medium (Thermo #A10491-01) supplemented with 200 nM phorbol 12-myristate 13-acetate (PMA, Sigma #P8139) to induce differentiation.
NLRP3 inflammasome was induced by replacing the culture medium with bovine serum-free RPMI-1640 medium supplemented with 0.015 mM Nigericin (Sigma #SML1779) and the test compound of known concentrations.
After 2 hours, the culture medium supernatant was collected and the IL-1β protein concentration was measured using the AlphaLISA (registered trademark) assay (PerkinElmer #AL220C).
The IL-1β concentration without the addition of the test compound and with Nigericin stimulation was set as 0% inhibitory activity, and the IL-1β concentration without Nigericin stimulation was set as 100% inhibitory activity, and the inhibition rate (% inhibition) of the test compound at each added concentration was calculated.
The % inhibition value was subjected to sigmoid fitting using a logistic regression model to calculate the 50% inhibitory concentration (IC50 value).
For orientation: Bead proximity is the source of the signal in Alpha formats.
Broadly, the IC50 is the midpoint of a concentration-inhibition curve. The low end stands for inhibition by little substance, the high end for a need for much substance. On to `CCCN1CCC[C@@H](N2CCc3cc(-c4c(C)cc(C(F)(F)F)cc4O)nnc32)C1` [Example 14, 3-methyl-2-{7-[(3R)-1-propylpiperidin-3-yl]-6,7-dihydro-5H-pyrrolo[2,3-c]pyridazin-3-yl}-5-(trifluoromethyl)phenol], for which the IC50 came out at 0.00787 µM.

`Cc1cc(C(F)(F)F)cc(O)c1-c1cc2c(nn1)N([C@@H]1CCCN(C(C)C)C1)CC2` [Example 15, 3-methyl-2-{7-[(3R)-1-(propan-2-yl)piperidin-3-yl]-6,7-dihydro-5H-pyrrolo[2,3-c]pyridazin-3-yl}-5-(trifluoromethyl)phenol]: the IC50 turned out to be 0.00486 µM.

For `Cc1cc(C(F)(F)F)cc(O)c1-c1cc2c(C#N)cn(C34CCCC(O)(C3)C4)c2nn1` [Example 16, 7-(5-hydroxybicyclo[3.1.1]heptan-1-yl)-3-[2-hydroxy-6-methyl-4-(trifluoromethyl)phenyl]-7H-pyrrolo[2,3-c]pyridazine-5-carbonitrile], the IC50 was found to be 0.0086 µM.

Take `Cc1cc(C(F)(F)F)cc(O)c1-c1cc2c(nn1)N([C@@H]1CCCN(C3CC3)C1)CC2` [Example 18, 2-{7-[(3R)-1-cyclopropylpiperidin-3-yl]-6,7-dihydro-5H-pyrrolo[2,3-c]pyridazin-3-yl}-3-methyl-5-(trifluoromethyl)phenol]: the half-maximal inhibitory concentration (IC50) came to 0.00665 µM.

Take `CCN1CCC[C@@H](n2cc(C)c3cc(-c4c(C)cc(C(F)(F)F)cc4O)nnc32)C1` [Example 20, 2-{7-[(3R)-1-ethylpiperidin-3-yl]-5-methyl-7H-pyrrolo[2,3-c]pyridazin-3-yl}-3-methyl-5-(trifluoromethyl)phenol]: the IC50 came to 0.00819 µM.

In the case of `CCN1CCC[C@@H](N2CCc3cc(-c4c(C)cc(OC(F)F)cc4O)nnc32)C1` [Example 22, 5-(difluoromethoxy)-2-{7-[(3R)-1-ethylpiperidin-3-yl]-6,7-dihydro-5H-pyrrolo[2,3-c]pyridazin-3-yl}-3-methylphenol], the IC50 is 0.0105 µM. The IC50 values of the last two compounds are within 1.5-fold of each other.

`CCN1CCC[C@@H](N2CCc3cc(-c4c(C)cc(OC(F)(F)F)cc4O)nnc32)C1` [Example 23, 2-{7-[(3R)-1-ethylpiperidin-3-yl]-6,7-dihydro-5H-pyrrolo[2,3-c]pyridazin-3-yl}-3-methyl-5-(trifluoromethoxy) phenol] displayed an IC50 of 0.0118 µM.

With `COc1cn(C23CCCC(O)(C2)C3)c2nnc(-c3c(C)cc(C(F)(F)F)cc3O)cc12` [Example 24, 5-{3-[2-hydroxy-6-methyl-4-(trifluoromethyl)phenyl]-5-methoxy-7H-pyrrolo[2,3-c]pyridazin-7-yl}bicyclo[3.1.1]heptan-1-ol], half-maximal inhibition (IC50) was put at 0.0348 µM.

Turning to `CCN1CCC[C@@H](N2CCc3cc(-c4c(C)cc(Cl)cc4O)nnc32)C1` [Example 26, 5-chloro-2-{7-[(3R)-1-ethylpiperidin-3-yl]-6,7-dihydro-5H-pyrrolo[2,3-c]pyridazin-3-yl}-3-methylphenol], the midpoint of inhibition, the IC50, lay at 0.00618 µM.

With `COc1cn([C@H]2C[C@@](C)(O)C2)c2nnc(-c3c(C)cc(Cl)cc3O)cc12` [Example 28, 5-chloro-2-{7-[(1s,3s)-3-hydroxy-3-methylcyclobutyl]-5-methoxy-7H-pyrrolo[2,3-c]pyridazin-3-yl}-3-methylphenol], the IC50 came out at 0.012 µM.

On to `Cc1cc(Cl)cc(O)c1-c1cc2c(OC(F)F)cn([C@H]3C[C@@](C)(O)C3)c2nn1` [Example 29, 5-chloro-2-{5-(difluoromethoxy)-7-[(1s,3s)-3-hydroxy-3-methylcyclobutyl]-7H-pyrrolo[2,3-c]pyridazin-3-yl}-3-methylphenol], for which the IC50 worked out at 0.0124 µM.

The compound `Cc1cc(C(F)(F)F)cc(O)c1-c1cc2ncn([C@@H]3CCCN(C)C3)c2nn1` [Example 32, 3-methyl-2-{7-[(3R)-1-methylpiperidin-3-yl]-7H-imidazo[4,5-c]pyridazin-3-yl}-5-(trifluoromethyl)phenol] returned a 50% inhibitory concentration (IC50) of 0.0306 µM.

For `Cc1cc(C(F)(F)F)cc(O)c1-c1cc2c(nn1)N([C@@H]1CCCN(C)C1)CCN2C` [Example 35, 3-methyl-2-{5-methyl-8-[(3R)-1-methylpiperidin-3-yl]-5,6,7,8-tetrahydropyrazino[2,3-c]pyridazin-3-yl}-5-(trifluoromethyl)phenol], the IC50 was 0.0256 µM.

With `Cc1cc(C(F)(F)F)cc(O)c1-c1cc2c(nn1)N([C@@H]1CCCN(C)C1)CCC2` [Example 36, 3-methyl-2-{8-[(3R)-1-methylpiperidin-3-yl]-5,6,7,8-tetrahydropyrido[2,3-c]pyridazin-3-yl}-5-(trifluoromethyl)phenol], half-maximal inhibition (IC50) required 0.0421 µM.

As for `Cc1cc(C(F)(F)F)cc(O)c1-c1cc2c(nn1)N([C@@H]1CCCN(C)C1)CCCN2C` [Example 37, 3-methyl-2-{5-methyl-9-[(3R)-1-methylpiperidin-3-yl]-6,7,8,9-tetrahydro-5H-pyridazino[3,4-b][1,4]diazepin-3-yl}-5-(trifluoromethyl)phenol], the IC50 turned out to be 0.0258 µM.

The compound `CN1CCC[C@@H](N2CCN3CCCc4c(-c5ccc(C(F)(F)F)cc5O)nnc2c43)C1` [Example 38, 2-{9-[(3R)-1-methylpiperidin-3-yl]-5,6,8,9-tetrahydro-4H, 7H-1,2,6a,9-tetraazaphenalen-3-yl}-5-(trifluoromethyl)phenol] gave an IC50 of 0.108 µM.

`Cc1c(-c2ccc(C(F)(F)F)cc2O)nnc2c1CCN2[C@H]1C[C@@](C)(O)C1` [Example 39, 2-{7-[(1s,3s)-3-hydroxy-3-methylcyclobutyl]-4-methyl-6,7-dihydro-5H-pyrrolo[2,3-c]pyridazin-3-yl}-5-(trifluoromethyl)phenol] returned an IC50 of 0.401 µM.

`Cc1cc(C(F)(F)F)cc(O)c1-c1cc2c(nn1)N([C@H]1C[C@@](C)(O)C1)CC2` [Example 40, 2-{7-[(1s,3s)-3-hydroxy-3-methylcyclobutyl]-6,7-dihydro-5H-pyrrolo[2,3-c]pyridazin-3-yl}-3-methyl-5-(trifluoromethyl)phenol monohydrochloride] yielded an IC50 of 0.162 µM.

As for `Cc1c(-c2ccc3c(c2O)CCC3)nnc2c1ccn2[C@H]1C[C@@](C)(O)C1` [Example 41, 5-{7-[(1s,3s)-3-hydroxy-3-methylcyclobutyl]-4-methyl-7H-pyrrolo[2,3-c]pyridazin-3-yl}-2,3-dihydro-1H-inden-4-ol], half-maximal inhibition (IC50) was put at 0.0775 µM. This IC50 is about 2.1-fold lower than that of the compound before.

In turn, `Cc1cc2c(c(O)c1-c1cc3c(C)cn([C@H]4C[C@@](C)(O)C4)c3nn1)CCC2` [Example 43, 5-{7-[(1s,3s)-3-hydroxy-3-methylcyclobutyl]-5-methyl-7H-pyrrolo[2,3-c]pyridazin-3-yl}-6-methyl-2,3-dihydro-1H-inden-4-ol] had an IC50 of 0.0221 µM.

Take `CCc1cn([C@H]2C[C@@](C)(O)C2)c2nnc(-c3c(C)cc(C(F)(F)F)cc3O)cc12` [Example 44, 2-{5-ethyl-7-[(1s,3s)-3-hydroxy-3-methylcyclobutyl]-7H-pyrrolo[2,3-c]pyridazin-3-yl}-3-methyl-5-(trifluoromethyl)phenol]: the midpoint of inhibition, the IC50, lay at 0.075 µM.

Take `Cc1cc(C(F)(F)F)cc(O)c1-c1cc2c(C#N)cn([C@H]3C[C@@](C)(O)C3)c2nn1` [Example 45, 7-[(1s,3s)-3-hydroxy-3-methylcyclobutyl]-3-[2-hydroxy-6-methyl-4-(trifluoromethyl)phenyl]-7H-pyrrolo[2,3-c]pyridazine-5-carbonitrile]: the 50% inhibitory concentration (IC50) came out at 0.00881 µM. Compared with the last compound, the IC50 is about 8.5-fold lower.

Compound `Cc1cc(C(F)(F)F)cc(O)c1-c1cc2c(C3CC3)cn([C@H]3C[C@@](C)(O)C3)c2nn1` [Example 46, 2-[5-cyclopropyl-7-[(1s,3s)-3-hydroxy-3-methylcyclobutyl]-7H-pyrrolo[2,3-c]pyridazin-3-yl]-3-methyl-5-(trifluoromethyl)phenol] yielded an IC50 of 0.0914 µM.

`Cc1cc(C(F)(F)F)c(F)c(O)c1-c1cc2c(C)cn([C@H]3C[C@@](C)(O)C3)c2nn1` [Example 48, 2-fluoro-6-{7-[(1s,3s)-3-hydroxy-3-methylcyclobutyl]-5-methyl-7H-pyrrolo[2,3-c]pyridazin-3-yl}-5-methyl-3-(trifluoromethyl)phenol] had an IC50 of 0.101 µM.

In turn, `Cc1cc(C(F)(F)F)cc(O)c1-c1cc2c(nn1)N([C@H]1CN(C)CC[C@H]1O)CC2` [Example 49, (3S,4R)-3-{3-[2-hydroxy-6-methyl-4-(trifluoromethyl)phenyl]-5,6-dihydro-7H-pyrrolo[2,3-c]pyridazin-7-yl}-1-methylpiperidin-4-ol] displayed an IC50 of 0.078 µM.

For the compound `Cc1c(F)c(C(F)(F)F)cc(O)c1-c1cc2c(C)cn([C@H]3C[C@@](C)(O)C3)c2nn1` [Example 50, 4-fluoro-2-{7-[(1s,3s)-3-hydroxy-3-methylcyclobutyl]-5-methyl-7H-pyrrolo[2,3-c]pyridazin-3-yl}-3-methyl-5-(trifluoromethyl)phenol], the IC50 came out at 0.236 µM. Against the preceding compound, the IC50 is about 3-fold higher.

Regarding `Cc1cc(C(F)(F)F)cc(O)c1-c1cc2c(C)c(C)n([C@H]3C[C@@](C)(O)C3)c2nn1` [Example 51, 2-{7-[(1s,3s)-3-hydroxy-3-methylcyclobutyl]-5,6-dimethyl-7H-pyrrolo[2,3-c]pyridazin-3-yl}-3-methyl-5-(trifluoromethyl)phenol], the midpoint of inhibition, the IC50, lay at 0.0336 µM.

The compound `Cc1cc(C#N)cc(O)c1-c1cc2c(C)cn([C@H]3C[C@@](C)(O)C3)c2nn1` [Example 52, 3-hydroxy-4-{7-[(1s,3s)-3-hydroxy-3-methylcyclobutyl]-5-methyl-7H-pyrrolo[2,3-c]pyridazin-3-yl}-5-methylbenzonitrile] had an IC50 of 0.0391 µM.

Values taken from US20260226065A1, “SUBSTITUTED BENZENE COMPOUND” (DAIICHI SANKYO COMPANY, LIMITED, priority 2023, published 2026).
